From publication PMC7464159, “Triple Negative Breast Cancer and Breast Epithelial Cells Differentially Reprogram Glucose and Lipid Metabolism upon Treatment with Triterpenic Acids” (Biomolecules, 2020)

Tested on: MCF-10A cells
Experiment: 1H NMR metabolomics of polar (aqueous) cell extracts
Format: cell-based, human
Conditions: for number of metabolites altered: 48 h
Method: MDA-MB-231 and MCF-10A cells were seeded in 10-cm-diameter Petri dishes at a density of 6 × 10^5 cells/mL (10 mL per dish) and cultured for 24 h at 37 °C. […] Vehicle solvent control cells received DMSO (0.10% v/v). Samples were collected immediately after 48 h incubation or, to assess cellular recovery, medium was replaced with fresh growth medium (without TAs), and cells were incubated for additional 24 h before collection (48 + 24 h samples). Four independent assays were performed.
After incubation, culture medium was collected and centrifuged (1000× g, 5 min) and the supernatant stored at −80 °C until analysis. Culture medium without cells was placed under the same conditions and collected. Cell extraction was performed as described by Carrola et al.. Briefly, cells were washed four times with PBS and extracted with a mixture of methanol:chloroform:water (1:1:0.7). The resulting polar and organic phases were collected and then dried under vacuum or under a stream of nitrogen gas, respectively. All samples were stored at −80 °C and, at the time of analysis, dried polar extracts were reconstituted in 600 µL of deuterated phosphate buffer (100 mM, pH 7.4) containing 0.1 mM TSP-d4, while organic extracts were reconstituted in deuterated chloroform containing 0.03% TMS. Regarding medium samples, 540 μL were mixed with 60 μL of D2O containing 0.25% TSP-d4. Prior to analysis, 550 μL of each sample were transferred to 5 mm NMR tubes.
^1H NMR spectra of all samples were acquired on a Bruker Avance III HD 500 NMR spectrometer (University of Aveiro, Portuguese NMR Network) operating at 500.13 MHz for ^1H observation equipped with a 5 mm TXI probe. Standard 1D spectra (Bruker pulse programs ‘noesypr1d’, with water suppression, for medium samples and aqueous extracts, and ‘zg’ for organic extracts) were recorded with a 7002.8 Hz spectral width, 32 k data points, a 2 s relaxation delay and 512 scans. Spectral processing comprised exponential multiplication with 0.3 Hz line broadening, zero filling to 64 k data points, manual phasing, baseline correction, and chemical shift calibration to the TSP or TMS signal at 0 ppm. 2D ^1H-^1H total correlation (TOCSY) spectra, ^1H-^13C heteronuclear single quantum correlation (HSQC) spectra and J-resolved spectra were also registered for selected samples to assist spectral assignment. Metabolites were identified with the support of 2D spectra and the spectral reference databases BBIOREFCODE-2-0-0 (Bruker Biospin, Rheinstetten, Germany) and HMDB [28]. Selected signals were then integrated using the AmixViewer software […] (version 3.9.14, Bruker BioSpin, Rheinstetten, Germany) and normalized by the total spectral area. The magnitude of each metabolite change was assessed through the percentage of variation (and its respective error) in exposed samples relatively to controls, and through the effect size (ES) adjusted for small sample numbers (and respective standard error). Metabolite variations with absolute ES greater than 0.8 were expressed in a heatmap, colored as a function of the percentage of variation, employing the R statistical software.

C[C@H]1[C@H](C)CC[C@]2(C(=O)O)CC[C@]3(C)C(=CC[C@@H]4[C@@]5(C)CC[C@H](O)C(C)(C)[C@@H]5CC[C@]43C)[C@H]12 [UA, ursolic acid]
1-MethyInicotinamide %var (UA 10µM, 48h): 38.46%
3-Hydroxyisobutyrate %var (UA 10µM, 48h): -23.71%
ATP %var (UA 10µM, 48h): 41.52%
Acetate %var (UA 10µM, 48h): 0%
Ala %var (UA 10µM, 48h): 44.32%
Asp %var (UA 10µM, 48h): -38.30%
Choline %var (UA 10µM, 48h): 31.99%
Citrate %var (UA 10µM, 48h): -36.91%
Cr %var (UA 10µM, 48h): -16.76%
Dimethylamine %var (UA 10µM, 48h): -53.26%
Formate %var (UA 10µM, 48h): 0%
Fumarate %var (UA 10µM, 48h): 0%
GPC %var (UA 10µM, 48h): 108.51%
GSH %var (UA 10µM, 48h): -30.60%
Gln %var (UA 10µM, 48h): 0%
Glu %var (UA 10µM, 48h): -21.17%
Glucose %var (UA 10µM, 48h): -71.26%
Glucose-1-phosphate %var (UA 10µM, 48h): -75.94%
Gly %var (UA 10µM, 48h): 40.31%
His %var (UA 10µM, 48h): 0%
Ile %var (UA 10µM, 48h): 211.80%
Lactate %var (UA 10µM, 48h): 0%
Leu %var (UA 10µM, 48h): 389.84%
NADH %var (UA 10µM, 48h): 34.09%
PC %var (UA 10µM, 48h): -26.30%
PCr %var (UA 10µM, 48h): 34.32%
Phe %var (UA 10µM, 48h): 22.52%
Pro %var (UA 10µM, 48h): 87.39%
Tyr %var (UA 10µM, 48h): 0%
UDP-GalNAc %var (UA 10µM, 48h): 62.26%
UDP-GlcNAc %var (UA 10µM, 48h): 60.69%
UDP-Glucose %var (UA 10µM, 48h): -19.78%
Val %var (UA 10µM, 48h): 151.36%
myo -Lno %var (UA 10µM, 48h): -13.14%
1-MethyInicotinamide %var (UA 10µM, 48h+24h): 22.91%
3-Hydroxyisobutyrate %var (UA 10µM, 48h+24h): -22.77%
ATP %var (UA 10µM, 48h+24h): 0%
Acetate %var (UA 10µM, 48h+24h): 0%
Ala %var (UA 10µM, 48h+24h): 0%
Asp %var (UA 10µM, 48h+24h): -26.58%
Choline %var (UA 10µM, 48h+24h): 0%
Citrate %var (UA 10µM, 48h+24h): -18.09%
Cr %var (UA 10µM, 48h+24h): 0%
Dimethylamine %var (UA 10µM, 48h+24h): -15.34%
Formate %var (UA 10µM, 48h+24h): 0%
Fumarate %var (UA 10µM, 48h+24h): -22.45%
GPC %var (UA 10µM, 48h+24h): -32.45%
GSH %var (UA 10µM, 48h+24h): -27.29%
Gln %var (UA 10µM, 48h+24h): 16.14%
Glu %var (UA 10µM, 48h+24h): 0%
Glucose %var (UA 10µM, 48h+24h): -31.96%
Glucose-1-phosphate %var (UA 10µM, 48h+24h): 0%
Gly %var (UA 10µM, 48h+24h): 24.70%
His %var (UA 10µM, 48h+24h): 0%
Ile %var (UA 10µM, 48h+24h): 58.71%
Lactate %var (UA 10µM, 48h+24h): 0%
Leu %var (UA 10µM, 48h+24h): 82.57%
NADH %var (UA 10µM, 48h+24h): 20.35%
PC %var (UA 10µM, 48h+24h): -38.35%
PCr %var (UA 10µM, 48h+24h): 24.82%
Phe %var (UA 10µM, 48h+24h): 16.59%
Pro %var (UA 10µM, 48h+24h): 49.66%
Tyr %var (UA 10µM, 48h+24h): 13.28%
UDP-GalNAc %var (UA 10µM, 48h+24h): 0%
UDP-GlcNAc %var (UA 10µM, 48h+24h): 0%
UDP-Glucose %var (UA 10µM, 48h+24h): 0%
Val %var (UA 10µM, 48h+24h): 47.98%
myo -Lno %var (UA 10µM, 48h+24h): 0%
1-MethyInicotinamide %var (UA 20µM, 48h): 83.24%
3-Hydroxyisobutyrate %var (UA 20µM, 48h): -30.93%
ATP %var (UA 20µM, 48h): 53.13%
Acetate %var (UA 20µM, 48h): 0%
Ala %var (UA 20µM, 48h): 0%
Asp %var (UA 20µM, 48h): -46.10%
Choline %var (UA 20µM, 48h): 30.58%
Citrate %var (UA 20µM, 48h): -38.52%
Cr %var (UA 20µM, 48h): 0%
Dimethylamine %var (UA 20µM, 48h): -41.93%
Formate %var (UA 20µM, 48h): 0%
Fumarate %var (UA 20µM, 48h): 0%
GPC %var (UA 20µM, 48h): 160.13%
GSH %var (UA 20µM, 48h): -21.64%
Gln %var (UA 20µM, 48h): 0%
Glu %var (UA 20µM, 48h): -23.01%
Glucose %var (UA 20µM, 48h): -85.89%
Glucose-1-phosphate %var (UA 20µM, 48h): -78.61%
Gly %var (UA 20µM, 48h): 38.29%
His %var (UA 20µM, 48h): 0%
Ile %var (UA 20µM, 48h): 156.93%
Lactate %var (UA 20µM, 48h): 0%
Leu %var (UA 20µM, 48h): 297.70%
NADH %var (UA 20µM, 48h): 46.21%
PCr %var (UA 20µM, 48h): 0%
Phe %var (UA 20µM, 48h): 0%
Pro %var (UA 20µM, 48h): 69.18%
Tyr %var (UA 20µM, 48h): 0%
UDP-GalNAc %var (UA 20µM, 48h): 68.87%
UDP-GlcNAc %var (UA 20µM, 48h): 61.45%
UDP-Glucose %var (UA 20µM, 48h): -32.23%
Val %var (UA 20µM, 48h): 101.22%
myo -Lno %var (UA 20µM, 48h): 0%
1-MethyInicotinamide %var (UA 20µM, 48h+24h): 50.44%
3-Hydroxyisobutyrate %var (UA 20µM, 48h+24h): -30.69%
ATP %var (UA 20µM, 48h+24h): 0%
Acetate %var (UA 20µM, 48h+24h): 10.61%
Ala %var (UA 20µM, 48h+24h): 0%
Asp %var (UA 20µM, 48h+24h): -37.26%
Choline %var (UA 20µM, 48h+24h): 0%
Citrate %var (UA 20µM, 48h+24h): -32.19%
Cr %var (UA 20µM, 48h+24h): 28.29%
Dimethylamine %var (UA 20µM, 48h+24h): -23.93%
Formate %var (UA 20µM, 48h+24h): 0%
Fumarate %var (UA 20µM, 48h+24h): -34.69%
GPC %var (UA 20µM, 48h+24h): 0%
GSH %var (UA 20µM, 48h+24h): -26.66%
Gln %var (UA 20µM, 48h+24h): 25.50%
Glu %var (UA 20µM, 48h+24h): -11.32%
Glucose %var (UA 20µM, 48h+24h): -67.35%
Glucose-1-phosphate %var (UA 20µM, 48h+24h): -40.85%
Gly %var (UA 20µM, 48h+24h): 31.50%
His %var (UA 20µM, 48h+24h): 0%
Ile %var (UA 20µM, 48h+24h): 94.71%
Lactate %var (UA 20µM, 48h+24h): 0%
Leu %var (UA 20µM, 48h+24h): 130.47%
NADH %var (UA 20µM, 48h+24h): 55.81%
PC %var (UA 20µM, 48h+24h): -38.16%
PCr %var (UA 20µM, 48h+24h): 0%
Phe %var (UA 20µM, 48h+24h): 27.29%
Pro %var (UA 20µM, 48h+24h): 78.81%
Tyr %var (UA 20µM, 48h+24h): 21.23%
UDP-GalNAc %var (UA 20µM, 48h+24h): 0%
UDP-GlcNAc %var (UA 20µM, 48h+24h): 0%
UDP-Glucose %var (UA 20µM, 48h+24h): -20.07%
Val %var (UA 20µM, 48h+24h): 70.45%
myo -Lno %var (UA 20µM, 48h+24h): 0%
number of metabolites altered (UA high concentration): 22
number of metabolites altered (UA low concentration): 27
